# Reference: patent US8809341B2, “2,4-pyrimidinediamine compounds and uses as anti-proliferative agents” (Rigel Pharmaceuticals, Inc., priority 2003, dated 2014)
# Test system: A549 cells
# Experiment: in vitro antiproliferation assay, A549 (lung)
# Type: cell-based
# Procedure: The IC50 values of various compounds against a various different tumor cell lines were determined using standard in vitro antiproliferation assays. The tumor cell lines tested were as follows: A549 (lung); H1299 (lung), ACHN (kidney/p53 wt), CAKI (renal cell carcinoma), NCI-H460 (lung); HCT116 (colon/p53w0; HELA (cervix/p53 wt), HUH7 (liver/p53 wt), HUVEC (primary endothelial), LNCAP (prostate), HT-29 (colon); MCF-7 (breast); MCF-7 (breast/ER positive), MDA MB435S (breast); MDA MB231 (breast/ER negative), DU145 (prostate); BxPC-3 (pancreatic); SKOV-3 (ovarian); HepG2 (hepatic), NDHF primary normal human dermal fibroblast), SKMEL28 (breast/p53mut), SKMEL5 (breast/p53 wt), U20S (bone) and PC3 (prostate). […] A blank indicates the specified compound was not tested against the specified cell line.
# [1] = Table 5, in vitro antiproliferation, A549 (lung) cells
# [2] = Table 7, in vitro antiproliferation, A549 (lung) cells
# [3] = A549 (lung) cells, in vitro antiproliferation
# [4] = A549 (lung) cells, antiproliferation
smiles,measurement,setting,value
CC(C)(C)c1cc(Nc2nc(Nc3cccc(N4CCOCC4)c3)ncc2F)n[nH]1 [compound 199],IC50,"Homo sapiens, IC50 class against A549 (lung) tumor cells",≤ 20 µM
CC1(C)Oc2ccc(Nc3nc(Nc4cc(Cl)cc(Cl)c4)ncc3F)cc2NC1=O [compound 308],IC50,"in vitro antiproliferation, A549 (lung) cells, Table 4, compounds with no designated stereochemistry tested as racemate",≤ 20 µM
O=C(COc1ccc(Nc2ncc(F)c(Nc3ccc4c(c3)OCCO4)n2)cc1)NCCO [compound 474],IC50,[1],> 20 µM
CCCCCCOc1ccc(Nc2ncc(F)c(Nc3ccc4c(c3)OCCO4)n2)cc1 [compound 477],IC50,[1],> 20 µM
CCOc1ccc(Nc2ncc(F)c(Nc3ccc4c(c3)OCCO4)n2)cc1 [compound 478],IC50,[1],≤ 20 µM
CCCCOc1ccc(Nc2ncc(F)c(Nc3ccc4c(c3)OCCO4)n2)cc1 [compound 479],IC50,[1],> 20 µM
CCOC(=O)COc1ccc(Nc2ncc(F)c(Nc3ccc4c(c3)OCCO4)n2)cc1 [compound 480],IC50,[1],> 20 µM
CN(C)C(=O)COc1cccc(Nc2ncc(F)c(Nc3ccc4c(c3)OCCO4)n2)c1 [compound 481],IC50,[1],> 20 µM
Oc1cccc(Nc2ncc(F)c(Nc3ccc4c(c3)OCCO4)n2)c1 [compound 482],IC50,[1],> 20 µM
Fc1ccc(Nc2ncc(F)c(Nc3ccc4c(c3)OCCO4)n2)cc1Cl [compound 485],IC50,[1],> 20 µM
Fc1ccc(Nc2ncc(F)c(Nc3ccc4c(c3)OCCO4)n2)cc1 [compound 487],IC50,[1],> 20 µM
CCc1ccc(Nc2ncc(F)c(Nc3ccc4c(c3)OCCO4)n2)cc1 [compound 489],IC50,[1],> 20 µM
O=C(O)COc1ccc(Nc2ncc(F)c(Nc3ccc4c(c3)OCCO4)n2)cc1 [compound 490],IC50,[1],> 20 µM
CC(=O)COc1cccc(Nc2ncc(F)c(Nc3ccc4c(c3)OCCO4)n2)c1 [compound 492],IC50,[1],> 20 µM
CNCCOc1cccc(Nc2ncc(F)c(Nc3ccc4c(c3)OCCO4)n2)c1 [compound 498],IC50,[1],> 20 µM
Fc1cnc(Nc2cccc(C(F)(F)F)c2)nc1Nc1ccc2c(c1)OCCO2 [compound 514],IC50,[1],> 20 µM
O=C(COc1cccc(Nc2ncc(F)c(Nc3ccc4c(c3)OCCO4)n2)c1)NC1CC1 [compound 520],IC50,[1],≤ 20 µM
OCCOc1cccc(Nc2ncc(F)c(Nc3ccc4c(c3)OCCO4)n2)c1 [compound 576],IC50,[1],≤ 20 µM
COC(=O)COc1cccc(Nc2ncc(F)c(Nc3ccc4c(c3)OCCO4)n2)c1 [compound 586],IC50,[1],> 20 µM
OCCOc1ccc(Nc2ncc(F)c(Nc3ccc4c(c3)OCCO4)n2)cc1 [compound 587],IC50,[1],≤ 20 µM
CCOC(=O)c1cc2cc(Nc3ncc(F)c(Nc4ccc(C(C)(C)C)cc4)n3)ccc2[nH]1 [compound 617],IC50,[2],> 20 µM
CCOC(=O)c1cc2cc(Nc3ncc(F)c(Nc4ccc5c(c4)OCCO5)n3)ccc2[nH]1 [compound 618],IC50,[2],≤ 20 µM
COC(=O)c1cc2cc(Nc3ncc(F)c(Nc4ccc(C(C)(C)C)cc4)n3)ccc2o1 [compound 619],IC50,[2],> 20 µM
O=C(O)c1cc2cc(Nc3ncc(F)c(Nc4cccc(O)c4)n3)ccc2[nH]1 [compound 621],IC50,[2],> 20 µM
CC(C)(C)c1ccc(Nc2nc(Nc3ccc4oc(C(=O)O)cc4c3)ncc2F)cc1 [compound 622],IC50,[2],> 20 µM
COC(=O)c1cc2cc(Nc3ncc(F)c(Nc4cccc(OC(C)C)c4)n3)ccc2o1 [compound 623],IC50,[2],> 20 µM
O=C(c1cc2cc(Nc3ncc(F)c(Nc4cccc(O)c4)n3)ccc2o1)N1CCOCC1 [compound 624],IC50,[2],> 20 µM
CNC(=O)c1cc2cc(Nc3ncc(F)c(Nc4cccc(O)c4)n3)ccc2o1 [compound 627],IC50,[2],> 20 µM
CNC(=O)c1cc2cc(Nc3ncc(F)c(Nc4ccc(C(C)(C)C)cc4)n3)ccc2o1 [compound 628],IC50,[2],> 20 µM
O=C(NCCO)c1cc2cc(Nc3ncc(F)c(Nc4cccc(O)c4)n3)ccc2o1 [compound 630],IC50,[2],> 20 µM
COC(=O)c1cc2cc(Nc3ncc(F)c(Nc4ccc5c(c4)OCCO5)n3)ccc2o1 [compound 638],IC50,[2],> 20 µM
O=C(O)c1cc2cc(Nc3ncc(F)c(Nc4ccc5c(c4)OCCO5)n3)ccc2o1 [compound 639],IC50,[2],> 20 µM
CC(C)Oc1ccc(Nc2nc(Nc3ccc4oc(C(=O)N5CCCC5)cc4c3)ncc2F)cc1 [compound 640],IC50,[2],> 20 µM
COC(=O)c1cc2cc(Nc3ncc(F)c(Nc4ccc(OC(C)C)cc4)n3)ccc2o1 [compound 641],IC50,[2],> 20 µM
CNC(=O)c1cc2cc(Nc3ncc(F)c(Nc4cccc(C(C)(C)C)c4)n3)ccc2o1 [compound 675],IC50,[2],> 20 µM
CN(C)CCOc1ccc(Nc2ncc(F)c(Nc3cccc(O)c3)n2)cc1 [compound 693],IC50,[3],≤ 20 µM
Fc1cc(Nc2ncc(F)c(Nc3ccc(C(F)(F)F)c(F)c3)n2)ccc1C(F)(F)F [compound 703],IC50,[3],> 20 µM
Fc1cnc(Nc2cccc(OC(F)(F)F)c2)nc1Nc1cccc(OC(F)(F)F)c1 [compound 705],IC50,[3],> 20 µM
Fc1cnc(Nc2ccc(Cl)c(C(F)(F)F)c2)nc1Nc1ccc(Cl)c(C(F)(F)F)c1 [compound 706],IC50,[3],> 20 µM
CCOc1cccc(Nc2ncc(F)c(Nc3cccc(OCC)c3)n2)c1 [compound 707],IC50,[3],≤ 20 µM
COc1cccc(Nc2ncc(F)c(Nc3cccc(OC)c3)n2)c1 [compound 708],IC50,[3],≤ 20 µM
CCOc1ccc(Nc2nc(Nc3ccc(OC)c(OC)c3)ncc2F)cc1 [compound 709],IC50,[3],> 20 µM
Oc1cccc(Nc2ncc(F)c(Nc3cccc(O)c3)n2)c1 [compound 711],IC50,[3],≤ 20 µM
COc1ccc(Nc2ncc(F)c(Nc3cccc(O)c3)n2)cc1OC [compound 712],IC50,[3],> 20 µM
CCOc1ccc(Nc2nc(Nc3cccc(O)c3)ncc2F)cc1 [compound 714],IC50,[3],> 20 µM
COc1ccc(Nc2nc(Nc3cccc(O)c3)ncc2F)cc1OC [compound 715],IC50,[3],≤ 20 µM
Fc1cnc(Nc2ccc(Cl)cc2)nc1Nc1ccc(Cl)cc1 [compound 716],IC50,[3],> 20 µM
CCc1ccc(Nc2ncc(F)c(Nc3ccc(CC)cc3)n2)cc1 [compound 722],IC50,[3],> 20 µM
COC(=O)COc1ccc(Nc2ncc(F)c(Nc3ccc(OCC(=O)OC)cc3)n2)cc1 [compound 723],IC50,[3],≤ 20 µM
COc1ccc(Nc2ncc(F)c(Nc3ccc(OC)c(O)c3)n2)cc1O [compound 725],IC50,[3],≤ 20 µM
CCOC(=O)COc1ccc(Nc2ncc(F)c(Nc3cccc(O)c3)n2)cc1 [compound 729],IC50,[3],> 20 µM
Oc1ccc(Nc2ncc(F)c(Nc3ccc(O)cc3)n2)cc1 [compound 730],IC50,[3],≤ 20 µM
Cc1cc(Nc2ncc(F)c(Nc3ccc(O)c(C)c3)n2)ccc1O [compound 731],IC50,[3],> 20 µM
O=C(O)COc1ccc(Nc2ncc(F)c(Nc3ccc(OCC(=O)O)cc3)n2)cc1 [compound 733],IC50,[3],> 20 µM
CNC(=O)COc1ccc(Nc2ncc(F)c(Nc3ccc(OCC(=O)O)cc3)n2)cc1 [compound 734],IC50,[3],> 20 µM
O=C(O)COc1ccc(Nc2ncc(F)c(Nc3cccc(Cl)c3)n2)cc1 [compound 736],IC50,[3],> 20 µM
CCOC(=O)COc1ccc(Nc2ncc(F)c(Nc3ccc(OCC(=O)OCC)cc3)n2)cc1 [compound 737],IC50,[3],> 20 µM
COC(=O)COc1ccc(Nc2ncc(F)c(Nc3ccc(OCC(=O)OC(C)(C)C)cc3)n2)cc1 [compound 738],IC50,[3],> 20 µM
CC(C)(C)OC(=O)COc1ccc(Nc2ncc(F)c(Nc3ccc(OCC(=O)OC(C)(C)C)cc3)n2)cc1 [compound 739],IC50,[3],> 20 µM
COc1cc(Nc2ncc(F)c(Nc3cc(OC)c(OC)c(OC)c3)n2)cc(OC)c1OC [compound 743],IC50,[3],> 20 µM
Oc1cccc(Nc2nc(Nc3ccc(OCCN4CCOCC4)cc3)ncc2F)c1 [compound 744],IC50,[3],≤ 20 µM
CC(C)Oc1ccc(Nc2ncc(F)c(Nc3ccc(OC(C)C)cc3)n2)cc1 [compound 745],IC50,[3],> 20 µM
COc1cc(Nc2ncc(F)c(Nc3cccc(O)c3)n2)cc(OC)c1OC [compound 760],IC50,[3],> 20 µM
CNC(=O)COc1cccc(Nc2ncc(F)c(Nc3cccc(C(F)(F)F)c3)n2)c1 [compound 770],IC50,[3],≤ 20 µM
CNC(=O)COc1cccc(Nc2nc(Nc3cc(OC)cc(OC)c3)ncc2F)c1 [compound 771],IC50,[3],≤ 20 µM
CNC(=O)COc1cccc(Nc2ncc(F)c(Nc3ccc(OC)c(Cl)c3)n2)c1 [compound 788],IC50,[3],≤ 20 µM
OCCOc1ccc(Nc2ncc(F)c(Nc3cccc(O)c3)n2)cc1 [compound 934],IC50,[4],≤ 20 µM
CC(C)c1ccc(Nc2nc(Nc3cccc(OCCO)c3)ncc2F)cc1 [compound 935],IC50,[4],> 20 µM
COC(=O)COc1ccc(Nc2ncc(F)c(Nc3ccc(C(C)C)cc3)n2)cc1 [compound 936],IC50,[4],> 20 µM
CC(C)c1ccc(Nc2nc(Nc3ccc(OCCO)cc3)ncc2F)cc1 [compound 937],IC50,[4],≤ 20 µM
OCCOc1cccc(Nc2nc(Nc3cccc(O)c3)ncc2F)c1 [compound 939],IC50,[4],> 20 µM
Oc1c(Cl)cc(Nc2ncc(F)c(Nc3cc(Cl)c(O)c(Cl)c3)n2)cc1Cl [compound 941],IC50,[4],> 20 µM
Cc1cc(Nc2ncc(F)c(Nc3cccc(O)c3)n2)cc(Cl)c1O [compound 943],IC50,[4],≤ 20 µM
CC(C)(C)c1cccc(Nc2ncc(F)c(Nc3cccc(O)c3)n2)c1 [compound 951],IC50,[4],> 20 µM
COc1ccc(Nc2nc(Nc3cccc(C(C)(C)C)c3)ncc2F)cc1OC [compound 953],IC50,[4],> 20 µM
CCOc1cccc(Nc2ncc(F)c(Nc3cccc(C(C)C)c3)n2)c1 [compound 964],IC50,[4],> 20 µM
CNC(=O)COc1cccc(Nc2ncc(F)c(Nc3cccc(C(C)C)c3)n2)c1 [compound 965],IC50,[4],> 20 µM
CC(C)c1cccc(Nc2nc(Nc3cccc(OCCO)c3)ncc2F)c1 [compound 966],IC50,[4],≤ 20 µM
OCCOc1cccc(Nc2ncc(F)c(Nc3ccc(CO)c(CO)c3)n2)c1 [compound 967],IC50,[4],> 20 µM
